According to patent US10556943B2, “HLA-DR binding peptides and their uses” (priority 2007, dated 2020):

Tests used:
purified HLA DRB1*1302 = molecular target: T1, purified HLA DRB1*1302 (Homo sapiens, UniProt P01903+P01911, A100E/A169T/K41T/L162R/M171V/P40S/Q125H/Q178H/Q39Y/Q99D/R42S/S66N/T262R/V115G/W38E/Y61H); assay: HLA-DR radioligand binding inhibition assay, DRB1*1302; details: column 6 of second part of Table I
T1 construct: MHC molecules utilized were purified from EBV transformed homozygous cell lines or single MHC allele transfected 721.221, C1R, or fibroblast lines; made in house; host or cells: EBV transformed homozygous cell lines or single MHC allele transfected 721.221, C1R, or fibroblast lines
T1 sequence (P01903 26-254, other chains not shown): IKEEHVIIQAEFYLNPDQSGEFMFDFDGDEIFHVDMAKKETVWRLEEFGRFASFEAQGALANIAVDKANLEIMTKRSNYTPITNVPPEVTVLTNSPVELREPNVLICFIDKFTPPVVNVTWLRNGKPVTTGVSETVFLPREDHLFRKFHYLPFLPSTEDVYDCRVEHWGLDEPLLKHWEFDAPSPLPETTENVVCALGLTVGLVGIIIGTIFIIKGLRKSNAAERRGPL
Method: (§1) Fifteen distinct HLA-DR molecules were used in quantitative assays to measure the binding of peptides to solubilized HLA-DR molecules. […] Briefly, columns of inactivated Sepharose CL4B and Protein A Sepharose were used as pre-columns. HLA-DR molecules were captured by passage of lysates over LB3.1 monoclonal antibody (anti-HLA-DRA) columns. Antibody columns were washed with 10 mM Tris-HCL, pH8.0 with 1% (v/v) NP-40, followed by PBS containing 0.4% (w/v) n-octylglucoside.
(§2) Briefly, 1-10 nM of radiolabeled peptide was co-incubated for 2 days at either room temperature or 37° C. with 1 μM to 1 nM purified HLA-DR molecules in the presence of a cocktail of protease inhibitors. Assays were performed at various pH conditions, ranging from pH 4 to pH 7. […] After incubation, the percentage of HLA-DR-bound radioactivity is determined by capturing HLA-DR/peptide complexes on Optiplates (Packard Instruments, Meriden, Conn.) coated with the LB3.1 antibody and determining bound counts per minute using the TopCount microscintillation counter (Packard Instruments).

purified HLA DRB1*0901 = molecular target: T2, purified HLA DRB1*0901 (Homo sapiens, UniProt P01903+P01911, A100R/A103E/D57H/D86V/F55Y/F60I/F76Y/I96F/K127E/L162R/M171V/P40D/Q125H/Q99R/R33Q/R42F/S133A/S66N/T210M/V115G/W38K/Y107V/Y59G/Y89S); assay: HLA-DR radioligand binding inhibition assay, DRB1*0901
T2 construct: MHC molecules utilized were purified from EBV transformed homozygous cell lines or single MHC allele transfected 721.221, C1R, or fibroblast lines; made in house; host or cells: EBV transformed homozygous cell lines or single MHC allele transfected 721.221, C1R, or fibroblast lines
Method: as §1, §2

purified HLA DRB1*1201 = molecular target: T3, purified HLA DRB1*1201 (Homo sapiens, UniProt P01903+P01911, A100R/A169T/D57E/D86V/F55L/H45Y/K41T/L162R/M171V/P40S/Q125H/Q178H/Q39Y/Q99D/R42G/S66L/T262R/V114A/V67L/W38E/Y59H/Y61H/Y89S); assay: HLA-DR radioligand binding inhibition assay, DRB1*1201; details: column 5 of second part of Table I
T3 construct: MHC molecules utilized were purified from EBV transformed homozygous cell lines or single MHC allele transfected 721.221, C1R, or fibroblast lines; made in house; host or cells: EBV transformed homozygous cell lines or single MHC allele transfected 721.221, C1R, or fibroblast lines
Method: as §1, with “n-octylglucoside. […] The pH was reduced to 8.0 and the eluates were concentrated by centrifugation in Centriprep 30 concentrators at 2000 rpm (Amicon, Beverly, Mass.).” for “n-octylglucoside.”
as §2, with “Instruments). […] Competitor peptides are tested in 2-4 complete, independent experiments, at concentrations ranging from 30 μg/mL to 300 pg/mL.” for “Instruments).”

IC50 (purified HLA DRB1*1302): > 20 µM | IC50 (purified HLA DRB1*0901): > 20 µM | IC50 (purified HLA DRB1*1201): > 20 µM
Compound: CSCC[C@H](NC(=O)[C@H](CCCNC(=N)N)NC(=O)[C@H](CO)NC(=O)[C@H](Cc1ccccc1)NC(=O)[C@H](CCC(=O)O)NC(=O)[C@H](CO)NC(=O)[C@@H](NC(=O)[C@H](CC(C)C)NC(=O)[C@H](CCC(=O)O)NC(=O)[C@H](CCCNC(=N)N)NC(=O)[C@@H](N)Cc1ccccc1)C(C)C)C(=O)N[C@@H](C)C(=O)N[C@@H](CCCNC(=N)N)C(=O)N[C@@H](CC(=O)O)C(=O)N1CCC[C@H]1C(=O)O [Peptide 9019.0096]
